“Also recorded” adds a separate entry of the source. Counter-ions that a name gives are not always drawn.
test system: not listed separately; assay: Antithrombotic action in the tail-bleeding time model on the rat (modified test according to Diness); format: in vivo; conditions: groups of 10, oral administration, 200 mg/kg
Experimental: The compound from Example 14 at a dose of 200 mg/kg thus prolonged the bleeding time by 103%.

| SMILES | prolongation of the bleeding time |
| --- | --- |
| CCOC(=O)n1c(SCc2ccccc2)nc2ccccc2c1=O [Example 14] | 103% |

test system: not listed separately; assay: Hygroscopicity of isolated solid; format: physicochemical; conditions: hydrochloride

| SMILES | hygroscopicity / behaviour in air (in words) |
| --- | --- |
| CN1CCCC(OC(=O)n2ccc3ccccc3c2=O)C1 (stereo not drawn) [Example 19, N'-Methylpiperidin-3-yl isoquinolin-1(2 H)-one-N-carboxylate hydrochloride] | very hygroscopic; also recorded: deliquesces in air |

molecular target: T1, elastase from human granulocytes (Homo sapiens, UniProt P08246); assay: Inhibition of granulocyte elastase (enzyme inhibition test, substrate L-pyroglutaminyl-L-prolyl-L-valine-p-nitroanilide); format: biochemical; conditions: substrate L-pyroglutaminyl-L-prolyl-L-valine-p-nitro-anilide, read-out: IC50 (concentration for 50% inhibition) of granulocytic elastase
T1 construct: from tissue; host or cells: human granulocytes
T1 sequence (P08246 30-247 limits assumed): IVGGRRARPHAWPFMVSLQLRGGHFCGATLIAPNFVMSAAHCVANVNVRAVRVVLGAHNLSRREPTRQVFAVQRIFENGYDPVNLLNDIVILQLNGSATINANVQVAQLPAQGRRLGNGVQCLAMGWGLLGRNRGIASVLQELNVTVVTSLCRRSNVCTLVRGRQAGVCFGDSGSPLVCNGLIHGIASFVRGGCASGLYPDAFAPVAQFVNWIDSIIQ
Experimental: The inhibition of granulocyte elastase was determined in an enzyme inhibition test using elastase from human granulocytes. In this test the specific substrate L-pyroglutaminyl-[…]-nitro-anilide was used ([…] et al., Scand. J. Lab. Invest. 43 (1983) 427-432). The IC50 values (concentrations for 50% inhibition) are shown in Table 1 for exemplary compounds according to the invention.

| SMILES | IC50 |
| --- | --- |
| O=C(Oc1ccccc1)n1ncc2ccccc2c1=O [Example 1, Phenyl 1(2 H)-phthalazinone-N-carboxylate] | 0.2 µM |
| CCOC(=O)n1ccc2ccccc2c1=O [Example 2] | 0.3 µM |
| COC(=O)c1ccc(OC(=O)n2nnc3ccccc3c2=O)cc1 [Example 4] | 8.3 µM |

Next, values leading:

| IC50 | SMILES |
| --- | --- |
| 0.75 µM | Cc1nn(C(=O)Oc2ccccc2)c(=O)c2ccccc12 [Example 6] |
| 4 µM | O=C(Oc1ccccc1)n1c(SCc2ccccc2)nc2ccccc2c1=O [Example 13] |
| 6 µM | CCOC(=O)n1c(SCc2ccccc2)nc2ccccc2c1=O [Example 14] |
| 5.4 µM | CCOC(=O)Oc1cccc2c(=O)n(C(=O)OCC)ccc12 [Example 15, Ethyl 5-ethoxycarbonyloxyisoquinolin-1(2 H)-one-N-carboxylate] |
